≈ marks a conversion by molar mass, not a printed value.
Key:
MT4 [1] = assay: Concentration of compound that reduces the viability of mock-infected MT-4 cells by 50%; format: functional; details: Homo sapiens
MT4 [2] = assay: Maximum protection (%) of MT-4 cells from HIV-1 (IIIB) induced cytopathogenicity; value ranges from 14-20%; format: functional, Homo sapiens
MT4 [3] = assay: Maximum protection (%) of MT-4 cells from HIV-2 (ROD) induced cytopathogenicity; format: functional, Homo sapiens
MT4 [4] = assay: Concentration required for protection of MT-4 cells from HIV-1 (IIIB) induced cytopathogenicity in MTT assay; format: functional, cell-based; details: Homo sapiens
MT4 [5] = assay: Selectivity index towards HIV-1 (IIIB) in MT-4 cells; format: functional, Homo sapiens
MT4 [6] = assay: Concentration required for protection of MT-4 cells from HIV-2 (ROD) induced cytopathogenicity in MTT assay; format: functional, cell-based; details: Homo sapiens
MT4 [7] = assay: Selectivity index towards HIV-2 (ROD) in MT-4 cells; format: functional, Homo sapiens
MT4 [8] = assay: Maximum protection (%) of MT-4 cells from HIV-1 (IIIB) induced cytopathogenicity; value ranges from 3-8%; format: functional, Homo sapiens
MT4 [9] = assay: Maximum protection (%) of MT-4 cells from HIV-1 (IIIB) induced cytopathogenicity; value ranges from 2-14%; format: functional, Homo sapiens
CCRF-CEM [10] = assay: Concentration of compound that reduces the viability of mock-infected CEM cells by 50%; format: functional; details: Homo sapiens
[11] = Selectivity index towards HIV-1 (IIIB) in peripheral blood mononuclear cells; format: functional, Homo sapiens
CCRF-CEM [12] = assay: Concentration of compound required for protection of CEM cells from HIV-1 (IIIB) induced cytopathogenicity; format: functional, cell-based; details: Homo sapiens
CCRF-CEM [13] = assay: Concentration of compound required for protection of CEM cells from HIV-2 (ROD) induced cytopathogenicity; format: functional, cell-based; details: Homo sapiens
CCRF-CEM [14] = assay: Selectivity index towards HIV-2 (ROD) in CEM cells; format: functional, Homo sapiens
[15] = Concentration of compound required for reduction of p24 production in HIV-1 (IIIB) infected peripheral blood mononuclear cells; format: functional; details: Homo sapiens
MT4 [16] = assay: Maximum protection (%) of MT-4 cells from HIV-1 (IIIB) induced cytopathogenicity; value ranges from 88-115%; format: functional, Homo sapiens
CCRF-CEM [17] = assay: Selectivity index towards HIV-1 (IIIB) in CEM cells; format: functional, Homo sapiens
[18] = Concentration of compound that reduces the viability of mock-infected peripheral blood mononuclear cells by 50%; format: functional; details: Homo sapiens
MT4 [19] = assay: Maximum protection (%) of MT-4 cells from HIV-1 (IIIB) induced cytopathogenicity; value ranges from 5-6%; format: functional, Homo sapiens
MT4 [20] = assay: Maximum protection (%) of MT-4 cells from HIV-1 (IIIB) induced cytopathogenicity; value ranges from 16-49%; format: functional, Homo sapiens
MT4 [21] = assay: Maximum protection (%) of MT-4 cells from HIV-2 (ROD) induced cytopathogenicity; value ranges from 21-26%; format: functional, Homo sapiens
MT4 [22] = assay: Maximum protection (%) of MT-4 cells from HIV-1 (IIIB) induced cytopathogenicity; value ranges from 29-37%; format: functional, Homo sapiens
MT4 [23] = assay: Maximum protection (%) of MT-4 cells from HIV-2 (ROD) induced cytopathogenicity; value ranges from 40-42%; format: functional, Homo sapiens
MT4 [24] = assay: Maximum protection (%) of MT-4 cells from HIV-1 (IIIB) induced cytopathogenicity; value ranges from 53-59%; format: functional, Homo sapiens
MT4 [25] = assay: Maximum protection (%) of MT-4 cells from HIV-2 (ROD) induced cytopathogenicity; value ranges from 40-43%; format: functional, Homo sapiens
MT4 [26] = assay: Maximum protection (%) of MT-4 cells from HIV-1 (IIIB) induced cytopathogenicity; value ranges from 34-37%; format: functional, Homo sapiens
MT4 [27] = assay: Maximum protection (%) of MT-4 cells from HIV-2 (ROD) induced cytopathogenicity; value ranges from 22-24%; format: functional, Homo sapiens
MT4 [28] = assay: Maximum protection (%) of MT-4 cells from HIV-1 (IIIB) induced cytopathogenicity; value ranges from 32-62%; format: functional, Homo sapiens
MT4 [29] = assay: Maximum protection (%) of MT-4 cells from HIV-2 (ROD) induced cytopathogenicity; value ranges from 55-58%; format: functional, Homo sapiens
MT4 [30] = assay: Maximum protection (%) of MT-4 cells from HIV-1 (IIIB) induced cytopathogenicity; value ranges from 4-13%; format: functional, Homo sapiens
MT4 [31] = assay: Maximum protection (%) of MT-4 cells from HIV-1 (IIIB) induced cytopathogenicity; value ranges from 8-9%; format: functional, Homo sapiens
MT4 [32] = assay: Maximum protection (%) of MT-4 cells from HIV-2 (ROD) induced cytopathogenicity; value ranges from 27-33%; format: functional, Homo sapiens
MT4 [33] = assay: Maximum protection (%) of MT-4 cells from HIV-1 (IIIB) induced cytopathogenicity; value ranges from 32-39%; format: functional, Homo sapiens
MT4 [34] = assay: Maximum protection (%) of MT-4 cells from HIV-1 (IIIB) induced cytopathogenicity; value ranges from 16-36%; format: functional, Homo sapiens
MT4 [35] = assay: Maximum protection (%) of MT-4 cells from HIV-1 (IIIB) induced cytopathogenicity; value ranges from 2-18%; format: functional, Homo sapiens

Compound | CC50 (MT4 [1]) | Protection (MT4 [3]) | EC50 (MT4 [4]) | Selectivity index (MT4 [5]) | EC50 (MT4 [6]) | Selectivity index (MT4 [7]) | other results
Nc1cc2c(=O)c(C(=O)O)cn(-c3nc4ccccc4s3)c2cc1N1CCN(c2ccccn2)CC1 | 9.13 µg/mL (≈ 18.3 µM) | 21% | > 9.13 µg/mL | <1 | > 9.13 µg/mL | <1 | Protection (MT4 [2]): <20%
Cn1cc(C(=O)O)c(=O)c2cc([N+](=O)[O-])c(N3CCN(c4ccccn4)CC3)c(F)c21 | 29.6 µg/mL (≈ 69.2 µM) | 4% | > 29.6 µg/mL | <1 | > 29.6 µg/mL | <1 | Protection (MT4 [8]): <8%
Nc1cc2c(=O)c(C(=O)O)cn(C3CCN(Cc4ccccc4)CC3)c2cc1N1CCN(c2ccccn2)CC1 | 2.36 µg/mL (≈ 4.38 µM) | 5% | > 2.36 µg/mL | <1 | > 2.36 µg/mL | <1 | Protection (MT4 [9]): <14%
Nc1cc2c(=O)c(C(=O)O)cn(C3CC3)c2cc1N1CCN(c2cccc(C(F)(F)F)c2)CC1 | 3.83 µg/mL (≈ 8.11 µM) | 71% | 0.27 µg/mL (≈ 0.571 µM) | 14.2 | 0.38 µg/mL (≈ 0.804 µM) | 10.1 | CC50 (CCRF-CEM [10]): 9 µg/mL (≈ 19 µM); Selectivity index [11]: 4; EC50 (CCRF-CEM [12]): 0.8 µg/mL (≈ 1.69 µM); EC50 (CCRF-CEM [13]): 0.8 µg/mL (≈ 1.69 µM); Selectivity index (CCRF-CEM [14]): 11; EC50 [15]: 1.09 µg/mL (≈ 2.31 µM); Protection (MT4 [16]): <115%; Selectivity index (CCRF-CEM [17]): 11; CC50 [18]: 4.63 µg/mL (≈ 9.8 µM)
Nc1cc2c(=O)c(C(=O)O)cn(-c3ccc(-c4ccccc4)cc3)c2cc1N1CCN(c2nc3ccccc3s2)CC1 | 0.67 µg/mL (≈ 1.17 µM) | 1% | > 0.67 µg/mL | <1 | > 0.67 µg/mL | <1 | Protection (MT4 [19]): <6%
COc1c(N2CCN(c3ccccn3)CC2)c(N)cc2c(=O)c(C(=O)O)cn(C)c12 | 4.28 µg/mL (≈ 10.5 µM) | – | > 4.28 µg/mL | <1 | > 4.28 µg/mL | <1 | Protection (MT4 [20]): <49%; Protection (MT4 [21]): <26%
Cn1cc(C(=O)O)c(=O)c2cc(N)c(N3CCN(c4ccccn4)CC3)c(F)c21 | 6.08 µg/mL (≈ 15.3 µM) | – | > 6.08 µg/mL | <1 | > 6.08 µg/mL | <1 | Protection (MT4 [22]): <37%; Protection (MT4 [23]): <42%
Cn1cc(C(=O)O)c(=O)c2ccc(N3CCN(c4ccccn4)CC3)cc21 | 65.5 µg/mL (≈ 180 µM) | – | 19.2 µg/mL (≈ 52.7 µM) | 3.4 | > 65.5 µg/mL | <1 | CC50 (CCRF-CEM [10]): > 100 µg/mL; Selectivity index [11]: >73; EC50 (CCRF-CEM [12]): 1.2 µg/mL (≈ 3.29 µM); EC50 (CCRF-CEM [13]): 1.8 µg/mL (≈ 4.94 µM); Selectivity index (CCRF-CEM [14]): >56; Protection (MT4 [24]): <59%; EC50 [15]: 1.37 µg/mL (≈ 3.76 µM); Protection (MT4 [25]): <43%; Selectivity index (CCRF-CEM [17]): >83; CC50 [18]: > 100 µg/mL
Nc1cc2c(=O)c(C(=O)O)cn(-c3ccc(F)cc3)c2cc1N1CCN(c2ccccn2)CC1 | 22 µg/mL (≈ 47.9 µM) | – | > 22 µg/mL | <1 | > 22 µg/mL | <1 | Protection (MT4 [26]): <37%; Protection (MT4 [27]): <24%
Nc1cc2c(=O)c(C(=O)O)cn(N3CCN(c4ccccn4)CC3)c2cc1N1CCN(c2ccccn2)CC1 | 58.5 µg/mL (≈ 111 µM) | – | ≥ 17.4 µg/mL | <=3.4 | 19.2 µg/mL (≈ 36.5 µM) | 3 | CC50 (CCRF-CEM [10]): > 100 µg/mL; Selectivity index [11]: >=19; EC50 (CCRF-CEM [12]): 9.4 µg/mL (≈ 17.9 µM); EC50 (CCRF-CEM [13]): 12 µg/mL (≈ 22.8 µM); Protection (MT4 [28]): <62%; Selectivity index (CCRF-CEM [14]): >8; Protection (MT4 [29]): <58%; EC50 [15]: 2.24 µg/mL (≈ 4.25 µM); Selectivity index (CCRF-CEM [17]): >11; CC50 [18]: ≥ 43.3 µg/mL
Cn1cc(C(=O)O)c(=O)c2cc([N+](=O)[O-])c(N3CCN(c4ccccn4)CC3)cc21 | 10.1 µg/mL (≈ 24.6 µM) | 5% | > 10.1 µg/mL | <1 | > 10.1 µg/mL | <1 | Protection (MT4 [30]): <13%
COc1ccccc1N1CCN(c2ccc3c(=O)c(C(=O)O)cn(C)c3c2)CC1 | > 125 µg/mL | 6% | > 125 µg/mL | – | > 125 µg/mL | – | Protection (MT4 [31]): <9%
Cn1cc(C(=O)O)c(=O)c2cnc(N3CCN(c4ccccn4)CC3)cc21 | 67.4 µg/mL (≈ 184 µM) | – | > 67.4 µg/mL | <1 | > 67.4 µg/mL | <1 | Protection (MT4 [32]): <33%; Protection (MT4 [33]): <39%
Nc1cc2c(=O)c(C(=O)O)cn(C3CC3)c2cc1N1CCN(c2nc3ccccc3s2)CC1 | 0.07 µg/mL (≈ 0.152 µM) | 42% | > 0.07 µg/mL | <1 | > 0.07 µg/mL | <1 | Protection (MT4 [34]): <36%
Nc1cc2c(=O)c(C(=O)O)cn(N3CCN(c4ccccn4)CC3)c2cc1N1CCN(c2nc3ccccc3s2)CC1 | 0.24 µg/mL (≈ 0.412 µM) | 0% | > 0.24 µg/mL | <1 | > 0.24 µg/mL | <1 | Protection (MT4 [35]): <18%
